In US20230293518A1 (Edgewise Therapeutics, Inc., priority 2020, published 2023):

Test system: embryos from zebrafish model of DMD
Assay: not given
Conditions: Li and Arner, PLoSONE, 2015; cited from earlier work

| SMILES | protection of muscles from pathological muscle derangement |
| --- | --- |
| Cc1ccc(S(=O)(=O)NCc2ccccc2)cc1 [BTS, N-benzyl-p-tolyl-sulfonamide] | protect muscles from pathological muscle derangement |

Biological target: skeletal myofibrils (myosin ATPase)
Assay: Skeletal Myofibril ATPase Assay
Format: biochemical
Conditions: Table 4C
Outline: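 Skeletal myofibril ATPase activity was measured via PK-LDH coupling, following NADH loss at 340 nm every 1.5-2 min for 45 min in PIPES/CaCl2/EGTA pCa buffer, pH 7.0. Max−Min slopes were normalised to 1% DMSO vehicle (100%) and fit to a four-parameter logistic (bottom ≥0) for IC50.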

| SMILES | IC50 [µM] |
| --- | --- |
| COc1ccc(-c2ccc(=O)n(CC(=O)NCc3cccc(F)c3)n2)c(F)c1 [IIIb-55, 2-(3-(2-fluoro-4-methoxyphenyl)-6-oxopyridazin-1(6H)-yl)-N-(3-fluorobenzyl)acetamide] | > 100 |
| COc1ccc(-c2ccc(=O)n(CC(=O)Nc3ccc(C(C)C)cc3)n2)cc1 [IIIb-56, N-(4-isopropylphenyl)-2-(3-(4-methoxyphenyl)-6-oxopyridazin-1(6H)-yl)acetamide] | > 100 |
| COc1ccc(-c2ccc(=O)n(CC(=O)NCCC(C)C)n2)c(F)c1 [IIIb-57, 2-(3-(2-fluoro-4-methoxyphenyl)-6-oxopyridazin-1(6H)-yl)-N-isopentylacetamide] | > 100 |
| COc1ccc(-c2ccc(=O)n(CC(=O)NC3CC3)n2)c(F)c1 [IIIb-58, N-cyclopropyl-2-(3-(2-fluoro-4-methoxyphenyl)-6-oxopyridazin-1(6H)-yl)acetamide] | > 100 |
| COc1ccc(-c2ccc(=O)n(CC(=O)Nc3cccc(C)n3)n2)cc1 [IIIb-59, 2-(3-(4-methoxyphenyl)-6-oxopyridazin-1(6H)-yl)-N-(6-methylpyridin-2-yl)acetamide] | > 100 |
| COc1ccc(-c2ccc(=O)n(CC(=O)NC3CCCCC3)n2)c(F)c1 [IIIb-60, N-cyclohexyl-2-(3-(2-fluoro-4-methoxyphenyl)-6-oxopyridazin-1(6H)-yl)acetamide] | > 100 |
| CC(C)CNC(=O)Cn1nc(-c2ccc(Cl)cc2)ccc1=O [IIIc-35, 2-(3-(4-chlorophenyl)-6-oxopyridazin-1(6H)-yl)-N-isobutylacetamide] | 10 to 100 |
| CC(C)NC(=O)Cn1nc(-c2ccc(Br)cc2)ccc1=O [IIIc-40, 2-(3-(4-bromophenyl)-6-oxopyridazin-1(6H)-yl)-N-isopropylacetamide] | 10 to 100 |
| O=C(Cn1nc(-c2ccc(F)cc2)ccc1=O)NCCc1c[nH]c2ccccc12 [IIIc-44, N-(2-(1H-indol-3-yl)ethyl)-2-(3-(4-fluorophenyl)-6-oxopyridazin-1(6H)-yl)acetamide] | 10 to 100 |
| O=C(Cn1nc(-c2ccccc2)ccc1=O)NCc1ccccc1Cl [IIIc-47, N-(2-chlorobenzyl)-2-(6-oxo-3-phenylpyridazin-1(6H)-yl)acetamide] | 10 to 100 |
| O=C(Cn1nc(-c2ccccc2)ccc1=O)Nc1cccc2[nH]ccc12 [IIIc-50, N-(1H-indol-4-yl)-2-(6-oxo-3-phenylpyridazin-1(6H)-yl)acetamide] | 10 to 100 |
| O=C(Cn1nc(-c2ccccc2)ccc1=O)Nc1ccccc1C(F)(F)F [IIIc-52, 2-(6-oxo-3-phenylpyridazin-1(6H)-yl)-N-(2-(trifluoromethyl)phenyl)acetamide] | 10 to 100 |
| CC(CCNC(=O)Cn1nc(-c2ccccc2)ccc1=O)c1ccccc1 (stereo not drawn) [IIIc-53, 2-(6-oxo-3-phenylpyridazin-1(6H)-yl)-N-(3-phenylbutyl)acetamide] | 10 to 100 |
| O=C(Cn1nc(-c2ccccc2)ccc1=O)Nc1ccc(Cl)cc1Cl [IIIc-54, N-(2,4-dichlorophenyl)-2-(6-oxo-3-phenylpyridazin-1(6H)-yl)acetamide] | 10 to 100 |
| CCC1CCC(CNC(=O)Cn2nc(-c3ccccc3)ccc2=O)CC1 (stereo not drawn) [IIIc-55, N-((4-ethylcyclohexyl)methyl)-2-(6-oxo-3-phenylpyridazin-1(6H)-yl)acetamide] | 10 to 100 |
| O=C(Cn1nc(-c2ccccc2)ccc1=O)Nc1ccccc1Cl [IIIc-56, N-(2-chlorophenyl)-2-(6-oxo-3-phenylpyridazin-1(6H)-yl)acetamide] | 10 to 100 |
| CC[C@H](C)NC(=O)Cn1nc(-c2ccccc2)ccc1=O [IIIc-57, (S)-N-(sec-butyl)-2-(6-oxo-3-phenylpyridazin-1(6H)-yl)acetamide] | 10 to 100 |
| COc1ccccc1NC(=O)Cn1nc(-c2ccccc2)ccc1=O [IIIc-58, N-(2-methoxyphenyl)-2-(6-oxo-3-phenylpyridazin-1(6H)-yl)acetamide] | 10 to 100 |
| COc1ccc(Cl)cc1NC(=O)Cn1nc(-c2ccccc2)ccc1=O [IIIc-62, N-(5-chloro-2-methoxyphenyl)-2-(6-oxo-3-phenylpyridazin-1(6H)-yl)acetamide] | > 100 |
| CC(C)NC(=O)Cn1nc(-c2ccccc2)ccc1=O [IIIc-63, N-isopropyl-2-(6-oxo-3-phenylpyridazin-1(6H)-yl)acetamide] | > 100 |
| O=C(Cn1nc(-c2ccccc2)ccc1=O)Nc1ccc2c(c1)OCCO2 [IIIc-64] | > 100 |
| O=C(Cn1nc(-c2ccccc2)ccc1=O)NC1CC1 [IIIc-65, N-cyclopropyl-2-(6-oxo-3-phenylpyridazin-1(6H)-yl)acetamide] | > 100 |
| O=C(Cn1nc(-c2ccccc2)ccc1=O)Nc1ccccc1F [IIIc-66, N-(2-fluorophenyl)-2-(6-oxo-3-phenylpyridazin-1(6H)-yl)acetamide] | > 100 |

More lines, now with the values ahead:

| IC50 [µM] | SMILES |
| --- | --- |
| < 10 | CCc1cccc(NC(=O)Cn2nc(-c3ccc(C)cc3)ccc2=O)c1 [IIIc-1, N-(3-ethylphenyl)-2-(6-oxo-3-(p-tolyl)pyridazin-1(6H)-yl)acetamide] |
| < 10 | CC[C@H](C)NC(=O)Cn1nc(-c2ccc(C)cc2)ccc1=O [IIIc-2, (S)-N-(sec-butyl)-2-(6-oxo-3-(p-tolyl)pyridazin-1(6H)-yl)acetamide] |
| < 10 | Cc1ccc(-c2ccc(=O)n(CC(=O)NCCc3ccccc3)n2)cc1 [IIIc-3, 2-(6-oxo-3-(p-tolyl)pyridazin-1(6H)-yl)-N-phenethylacetamide] |
| 10 to 100 | Cc1ccc(-c2ccc(=O)n(CC(=O)NC3CCCCCC3)n2)cc1 [IIIc-4, N-cycloheptyl-2-(6-oxo-3-(p-tolyl)pyridazin-1(6H)-yl)acetamide] |
| 10 to 100 | Cc1ccc(-c2ccc(=O)n(CC(=O)NC3CCCC3)n2)cc1 [IIIc-5, N-cyclopentyl-2-(6-oxo-3-(p-tolyl)pyridazin-1(6H)-yl)acetamide] |
| 10 to 100 | Cc1ccc(-c2ccc(=O)n(CC(=O)NC3CCCCC3)n2)cc1 [IIIc-6, N-cyclohexyl-2-(6-oxo-3-(p-tolyl)pyridazin-1(6H)-yl)acetamide] |
| 10 to 100 | COc1ccc(-c2ccc(=O)n(CC(=O)N(C)c3ccccc3)n2)cc1 [IIIc-7, 2-(3-(4-methoxyphenyl)-6-oxopyridazin-1(6H)-yl)-N-methyl-N-phenylacetamide] |
| < 10 | Cn1ccc2c(NC(=O)Cn3nc(-c4ccc(F)cc4)ccc3=O)cccc21 [IIIc-16, 2-(3-(4-fluorophenyl)-6-oxopyridazin-1(6H)-yl)-N-(1-methyl-1H-indol-4-yl)acetamide] |
| < 10 | O=C(Cn1nc(-c2ccc(Cl)cc2)ccc1=O)Nc1cccc2[nH]ccc12 [IIIc-19, 2-(3-(4-chlorophenyl)-6-oxopyridazin-1(6H)-yl)-N-(1H-indol-4-yl)acetamide] |
| < 10 | Cn1ccc2c(NC(=O)Cn3nc(-c4ccc(Cl)cc4)ccc3=O)cccc21 [IIIc-20, 2-(3-(4-chlorophenyl)-6-oxopyridazin-1(6H)-yl)-N-(1-methyl-1H-indol-4-yl)acetamide] |
| < 10 | O=C(Cn1nc(-c2ccc(Cl)cc2)ccc1=O)Nc1ccc2[nH]ccc2c1 [IIIc-22, 2-(3-(4-chlorophenyl)-6-oxopyridazin-1(6H)-yl)-N-(1H-indol-5-yl)acetamide] |
| < 10 | COc1ccccc1NC(=O)Cn1nc(-c2ccc(Cl)cc2)ccc1=O [IIIc-23, 2-(3-(4-chlorophenyl)-6-oxopyridazin-1(6H)-yl)-N-(2-methoxyphenyl)acetamide] |
| 10 to 100 | O=C(Cn1nc(-c2ccc(Cl)cc2)ccc1=O)Nc1ccccc1F [IIIc-27, 2-(3-(4-chlorophenyl)-6-oxopyridazin-1(6H)-yl)-N-(2-fluorophenyl)acetamide] |
| < 10 | O=C(Cn1nc(-c2ccc(Cl)cc2)ccc1=O)Nc1ccccc1Cl [IIIc-28, N-(2-chlorophenyl)-2-(3-(4-chlorophenyl)-6-oxopyridazin-1(6H)-yl)acetamide] |
| 10 to 100 | CC[C@H](C)NC(=O)Cn1nc(-c2ccc(Cl)cc2)ccc1=O [IIIc-30, (S)-N-(sec-butyl)-2-(3-(4-chlorophenyl)-6-oxopyridazin-1(6H)-yl)acetamide] |
| 10 to 100 | COc1ccc(NC(=O)Cn2nc(-c3ccc(F)cc3)ccc2=O)c(OC)c1 [IIIc-31, N-(2,4-dimethoxyphenyl)-2-(3-(4-fluorophenyl)-6-oxopyridazin-1(6H)-yl)acetamide] |
| 10 to 100 | CN(Cc1ccccc1)C(=O)Cn1nc(-c2ccc(Cl)cc2)ccc1=O [IIIc-32, N-benzyl-2-(3-(4-chlorophenyl)-6-oxopyridazin-1(6H)-yl)-N-methylacetamide] |
| 10 to 100 | CC(C)OCCCNC(=O)Cn1nc(-c2ccc(Cl)cc2)ccc1=O [IIIc-33, 2-(3-(4-chlorophenyl)-6-oxopyridazin-1(6H)-yl)-N-(3-isopropoxypropyl)acetamide] |
| < 10 | O=C(Cn1nc(-c2ccccc2)ccc1=O)NCCC1=CCCCC1 [IIIc-48, N-(2-(cyclohex-1-en-1-yl)ethyl)-2-(6-oxo-3-phenylpyridazin-1(6H)-yl)acetamide] |
| < 10 | O=C(Cn1nc(-c2ccccc2)ccc1=O)Nc1ccc2[nH]ccc2c1 [IIIc-49, N-(1H-indol-5-yl)-2-(6-oxo-3-phenylpyridazin-1(6H)-yl)acetamide] |
| < 10 | O=C(Cn1nc(-c2ccccc2)ccc1=O)NC1(c2ccccc2)CCC1 [IIIc-51, 2-(6-oxo-3-phenylpyridazin-1(6H)-yl)-N-(1-phenylcyclobutyl)acetamide] |
